In PMC12131194, “Rational design, synthesis, and evaluation of novel polypharmacological compounds targeting NaV1.5, KV1.5, and K2P channels for atrial fibrillation” (The Journal of Biological Chemistry, 2025):

Molecular target: T1, h NaV1.5 (Homo sapiens, UniProt Q14524, R1027Q)
T1 construct: expressed in transfected cells; host or cells: Xenopus laevis oocytes injected with cRNA
Test: TEVC recordings in X. laevis oocytes, NaV1.5
Assay type: cell-based
Settings: for Ionic current block INa: from inhibition curves, used for simulation
Description: To obtain X. laevis oocytes, the frogs were anesthetized with 2 g/L of tricaine methanesulfonate, and the ovarian lobes were mechanically separated with forceps. The oocytes were incubated for 120 min in an OR2 solution containing in mM: NaCl 82.5, KCl 2, MgCl2 1, HEPES 5 (pH 7.5) supplemented with 2 mg/ml of collagenase II (Sigma) to remove residual connective tissue and obtain individual oocytes. Subsequently, the oocytes were washed with a ND96 solution containing in mM: NaCl 96, KCl 2, CaCl2 1.8, MgCl2 1, HEPES 5 (pH 7.5, adjusted with NaOH) and stored at 18 °C in ND96 solution supplemented with 1 ml of gentamicin (50 mg/L), sodium pyruvate (275 mg/L) and (90 mg/L) theophylline (inhibits further oocyte maturation) before and after RNA injection.
In order to overexpress the channel in the oocyte, each of the channels to be measured was subcloned (complementary DNA (cDNA); human TASK-1 (KCNK3, NM_002246), h KV1.5 (KCNA5, NM_002234), h NaV1.5 (hH1, M77235), TASK-4/TALK-2 (KCNK17, NM_AF358910), TREK-1 (KCNK2, AF004711) and Kir2.1 (KCNJ2, NM_017296) into pSGEM, pBF1 or pSP64 expression vector, and the cDNA was linearized with NheI or MluI. Complementary RNA (cRNA) was synthesized with the mMESSAGE mMACHINE-Kit (Ambion). The quality of the cRNA was tested on an agarose gel by electrophoresis. cRNA was quantified using a UV-Vis spectrophotometer (NanoDrop 2000). Subsequently, the channel was transfected in the oocytes in stages V and VI, for which […] (TASK-1, KV1.5 or TREK-1), 10 ng (NaV1.5 or TASK-4) o 2.5 ng (Kir2.1) per oocyte of cRNA was injected with a NanojectII microinjector (Drummond Scientific). The oocytes were stored in 24-well plates for 24 to 48 h at 18 °C. After this time, the overexpression of each channel was monitored through electrophysiology.
Two-electrode voltage clamp measurements were performed 24 or 48 h after cRNA injection at room temperature (20–22 °C) in ND96 recording solution with a TurboTEC-10CD (npi) amplifier and a Digidata 1550B (for TASK-1 and KV1.5) and 1440A (for NaV1.5) A/D converter from Axon Instruments. Micropipettes were fabricated from GB 150 TF-8P borosilicate glass capillaries (Science Products) elongated in a DMZ-Universal Puller (Zeitz, Germany). […] ND96 was used as bath solution. Data acquisition was performed using Clampex 10 software (Axon Instruments), and data were analyzed with ClampFit 10 (Axon Instruments) and Origin 7 (Origin Lab Corporation).
For compound inhibition testing, from a holding potential of −80 mV a first test pulse to 0 mV of 1 s duration was followed by a repolarization step at −80 mV for 1 s, directly followed by another 1 s test pulse at +40 mV. The sweep time interval was 10 s for KV1.5 and TASK-1 channels. For the NaV1.5 channel, the block was analyzed with voltage steps from a holding potential of −80 mV. A first depolarizing pulse to −30 mV of 50 ms duration was applied, followed by a 5 ms step to −80 mV. The sweep time interval was 5 s. The compounds were applied at different concentrations to determine the half-maximal inhibitory concentration (IC50), using a fit to the Hill equation.
To test for a putative voltage-dependence of the block by the compound 6f in KV1.5, a 1.5 s voltage step protocol from −80 to +80 mV with +20 mV increments was used. The holding potential was −80 mV and the sweep time interval was 10 s. Currents were analyzed at the end of the voltage pulse. For TASK-1, voltage-dependence of block was probed using a high-potassium solution (KD96) containing in mM: KCl 96, NaCl 2, CaCl2 1.8, MgCl2 1, HEPES 5, (pH 7.5, adjusted with KOH). From a holding potential of 0 mV, voltage was stepped from −80 mV to +80 mV for 1.5 s in +20 mV steps every 10 s. To determine the current-voltage relationship of the NaV1.5 channel, the voltage was stepped for 50 ms from a holding potential of −80 mV to −70 mV to +80 mV in +10 mV increments every 5 s. The peak currents were subsequently plotted against the respective applied voltages.

T1 sequence (Q14524 whole entry R1027Q): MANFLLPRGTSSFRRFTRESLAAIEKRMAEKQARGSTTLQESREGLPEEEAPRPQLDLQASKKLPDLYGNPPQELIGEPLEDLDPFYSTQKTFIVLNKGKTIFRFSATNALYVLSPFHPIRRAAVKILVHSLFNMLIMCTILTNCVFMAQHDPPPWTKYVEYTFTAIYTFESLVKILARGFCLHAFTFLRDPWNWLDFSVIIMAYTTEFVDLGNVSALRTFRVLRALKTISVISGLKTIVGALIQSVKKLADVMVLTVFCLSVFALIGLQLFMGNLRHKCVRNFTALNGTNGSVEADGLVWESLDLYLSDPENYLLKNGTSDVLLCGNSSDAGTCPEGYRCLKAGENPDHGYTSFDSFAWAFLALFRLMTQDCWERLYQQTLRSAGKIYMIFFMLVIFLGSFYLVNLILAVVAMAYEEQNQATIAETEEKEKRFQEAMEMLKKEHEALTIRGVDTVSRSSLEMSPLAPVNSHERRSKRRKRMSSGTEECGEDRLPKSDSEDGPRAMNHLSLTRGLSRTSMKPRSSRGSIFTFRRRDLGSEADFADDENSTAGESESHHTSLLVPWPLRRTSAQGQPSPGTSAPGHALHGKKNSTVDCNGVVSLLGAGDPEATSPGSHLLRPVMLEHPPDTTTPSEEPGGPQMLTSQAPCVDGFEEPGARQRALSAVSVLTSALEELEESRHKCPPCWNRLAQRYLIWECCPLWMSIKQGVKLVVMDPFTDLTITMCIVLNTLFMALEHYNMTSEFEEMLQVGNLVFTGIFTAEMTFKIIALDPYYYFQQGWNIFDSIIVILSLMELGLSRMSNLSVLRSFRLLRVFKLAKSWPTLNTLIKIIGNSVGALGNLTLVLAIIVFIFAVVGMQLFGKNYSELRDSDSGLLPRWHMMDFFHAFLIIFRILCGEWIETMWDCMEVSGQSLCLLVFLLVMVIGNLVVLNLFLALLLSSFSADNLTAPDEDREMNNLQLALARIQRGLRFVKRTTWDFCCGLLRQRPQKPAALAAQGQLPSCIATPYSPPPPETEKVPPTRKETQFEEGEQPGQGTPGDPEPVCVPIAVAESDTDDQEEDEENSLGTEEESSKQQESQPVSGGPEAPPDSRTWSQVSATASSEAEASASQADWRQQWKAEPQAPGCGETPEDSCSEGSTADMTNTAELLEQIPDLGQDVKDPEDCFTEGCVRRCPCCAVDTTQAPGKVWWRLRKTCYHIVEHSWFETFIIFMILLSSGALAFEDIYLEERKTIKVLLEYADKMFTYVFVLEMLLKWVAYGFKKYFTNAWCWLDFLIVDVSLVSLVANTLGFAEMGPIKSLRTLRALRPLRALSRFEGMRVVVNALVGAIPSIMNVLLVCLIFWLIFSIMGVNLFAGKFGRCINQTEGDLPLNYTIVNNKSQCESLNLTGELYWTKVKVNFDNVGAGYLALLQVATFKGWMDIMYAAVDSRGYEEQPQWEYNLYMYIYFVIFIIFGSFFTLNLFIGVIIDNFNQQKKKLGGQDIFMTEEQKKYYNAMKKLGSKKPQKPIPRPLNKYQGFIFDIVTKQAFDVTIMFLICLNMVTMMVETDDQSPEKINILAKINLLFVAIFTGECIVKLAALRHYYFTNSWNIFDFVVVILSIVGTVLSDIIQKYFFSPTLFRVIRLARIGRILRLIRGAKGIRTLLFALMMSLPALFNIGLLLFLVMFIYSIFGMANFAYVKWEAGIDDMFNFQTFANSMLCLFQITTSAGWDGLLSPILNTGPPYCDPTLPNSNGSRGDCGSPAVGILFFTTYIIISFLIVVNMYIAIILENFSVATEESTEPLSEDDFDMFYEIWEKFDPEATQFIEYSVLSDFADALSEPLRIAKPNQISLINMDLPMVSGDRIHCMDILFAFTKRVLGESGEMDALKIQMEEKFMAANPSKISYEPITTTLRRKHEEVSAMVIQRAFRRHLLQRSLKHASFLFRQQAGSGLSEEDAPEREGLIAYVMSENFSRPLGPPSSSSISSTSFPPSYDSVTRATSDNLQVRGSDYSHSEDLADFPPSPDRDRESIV

With CCCCN(CCCC)CC(=O)Nc1ccc(OC)cc1OC [Compound 6f, 2-(dibutylamine)-N-(2,4-dimethoxiphenyl)acetamide] the “Ionic current block INa” value (1 μM) was 16%, the “Ionic current block INa” value (10 μM) was 30% and the “Ionic current block INa” value (100 μM) was 65%. For the same compound, the inhibition at 100 µM (100 μM, −30 mV, oocytes, mean ± SD) was 62.4 ± 20.6%, the “Voltage-dependence of block of NaV1.5” value (oocytes, 100 μM) was “small but significant variations” and the “Frequency-dependent inhibition of NaV1.5” value (oocytes, 100 μM, 1, 2 and 3 Hz) was “did not observe a significant frequency-dependent inhibition”.
